# Source: ChEMBL document CHEMBL3885861, “Open TG-GATES”
# Species on record: Rattus norvegicus
# Test: Open TG-GATES - Regimen: Daily Repeat
# Type: toxicity, organism-based, Sprague-Dawley
# Design: regimen Daily Repeat, gender Male, age 6 weeks
# Conditions: in vivo, po, 25 mg/kg, route gavage, dose level Middle; for APTT / Bas / Eos / Fbg / Hb / Ht / Lym / MCH / MCHC / MCV / Mono / Neu / PT / Plat / RBC / Ret / WBC: tissue Blood; for KIDNEY_L / KIDNEY_R / KIDNEY_TOTAL: tissue Kidney; for LIVER: tissue Liver; for A/G / ALP / ALT / AST / BUN / CRE / Ca / Cl / DBIL / GLC / IP / K / LDH / Na / PL / RALB / TBIL / TC / TG / TP / gamma-GTP: tissue Plasma
smiles,measurement,setting,value
NC1=NC(=O)C(c2ccccc2)O1 (configuration not stated) [PEMOLINE],TERMINAL_BW,"72 h, time 3 day",222.4 g
same,APTT,"72 h, time 3 day",16.7 s
same,Bas,"72 h, time 3 day",0%
same,Eos,"72 h, time 3 day",1%
same,Fbg,"72 h, time 3 day",288.4 mg/dL
same,Hb,"72 h, time 3 day",13.3 g/dL
same,Ht,"72 h, time 3 day",39%
same,Lym,"72 h, time 3 day",76.2%
same,MCH,"72 h, time 3 day",21.3 pg
same,MCHC,"72 h, time 3 day",33.9%
same,MCV,"72 h, time 3 day",62.6 fL
same,Mono,"72 h, time 3 day",3%
same,Neu,"72 h, time 3 day",19.4%
same,PT,"72 h, time 3 day",13 s
same,Plat,"72 h, time 3 day",109.7 x10_4/uL
same,RBC,"72 h, time 3 day",623.8 x10_4/ul
same,Ret,"72 h, time 3 day",6.1%
same,WBC,"72 h, time 3 day",79.9 x10_2/uL
same,KIDNEY_L,"72 h, time 3 day",1 g
same,KIDNEY_R,"72 h, time 3 day",0.9 g
same,KIDNEY_TOTAL,"72 h, time 3 day",1.9 g
same,LIVER,"72 h, time 3 day",9.9 g
same,A/G,"72 h, time 3 day",0.9
same,ALP,"72 h, time 3 day",1654.8 IU/L
same,ALT,"72 h, time 3 day",41.8 IU/L
same,AST,"72 h, time 3 day",72.6 IU/L
same,BUN,"72 h, time 3 day",13.8 mg/dL
same,CRE,"72 h, time 3 day",0.2 mg/dL
same,Ca,"72 h, time 3 day",10.7 mg/dL
same,Cl,"72 h, time 3 day",105.8 meq/L
same,DBIL,"72 h, time 3 day",0.018 mg/dL
same,GLC,"72 h, time 3 day",177.4 mg/dL
same,IP,"72 h, time 3 day",7.5 mg/dL
same,K,"72 h, time 3 day",4.1 meq/L
same,LDH,"72 h, time 3 day",54.2 IU/L
same,Na,"72 h, time 3 day",142.2 meq/L
same,PL,"72 h, time 3 day",130.6 mg/dL
same,RALB,"72 h, time 3 day",2.6 g/dL
same,TBIL,"72 h, time 3 day",0.03 mg/dL
same,TC,"72 h, time 3 day",79.8 mg/dL
same,TG,"72 h, time 3 day",40 mg/dL
same,TP,"72 h, time 3 day",5.4 g/dL
same,gamma-GTP,"72 h, time 3 day",1 IU/L
same,TERMINAL_BW,"[…], time 7 day",260.2 g
same,TERMINAL_BW,"[…], time 14 day",319 g
same,TERMINAL_BW,"[…], time 28 day",384.9 g
same,APTT,"[…], time 7 day",15.8 s
same,Bas,"[…], time 7 day",0%
same,Eos,"[…], time 7 day",1%
same,Fbg,"[…], time 7 day",268.6 mg/dL
same,Hb,"[…], time 7 day",13.4 g/dL
same,Ht,"[…], time 7 day",39.5%
same,Lym,"[…], time 7 day",73.4%
same,MCH,"[…], time 7 day",20.9 pg
same,MCHC,"[…], time 7 day",34%
same,MCV,"[…], time 7 day",61.5 fL
same,Mono,"[…], time 7 day",3%
same,Neu,"[…], time 7 day",21.8%
same,PT,"[…], time 7 day",13.1 s
same,Plat,"[…], time 7 day",116 x10_4/uL
same,RBC,"[…], time 7 day",642.2 x10_4/ul
same,Ret,"[…], time 7 day",5.8%
same,WBC,"[…], time 7 day",107.7 x10_2/uL
same,APTT,"[…], time 14 day",16.6 s
same,Bas,"[…], time 14 day",0%
same,Eos,"[…], time 14 day",1%
same,Fbg,"[…], time 14 day",294.2 mg/dL
same,Hb,"[…], time 14 day",14.7 g/dL
same,Ht,"[…], time 14 day",42.4%
same,Lym,"[…], time 14 day",78.8%
same,MCH,"[…], time 14 day",21.3 pg
same,MCHC,"[…], time 14 day",34.7%
same,MCV,"[…], time 14 day",61.3 fL
same,Mono,"[…], time 14 day",2.6%
same,Neu,"[…], time 14 day",17.2%
same,PT,"[…], time 14 day",13.1 s
same,Plat,"[…], time 14 day",114.8 x10_4/uL
same,RBC,"[…], time 14 day",692.2 x10_4/ul
same,Ret,"[…], time 14 day",4.6%
same,WBC,"[…], time 14 day",86.6 x10_2/uL
same,APTT,"[…], time 28 day",17.9 s
same,Bas,"[…], time 28 day",0.6%
same,Eos,"[…], time 28 day",1%
same,Fbg,"[…], time 28 day",269 mg/dL
same,Hb,"[…], time 28 day",15.9 g/dL
same,Ht,"[…], time 28 day",44.1%
same,Lym,"[…], time 28 day",80%
same,MCH,"[…], time 28 day",20.6 pg
same,MCHC,"[…], time 28 day",36.1%
same,MCV,"[…], time 28 day",57.1 fL
same,Mono,"[…], time 28 day",2.4%
same,Neu,"[…], time 28 day",15.2%
same,PT,"[…], time 28 day",12.7 s
same,Plat,"[…], time 28 day",109.5 x10_4/uL
same,RBC,"[…], time 28 day",771.4 x10_4/ul
same,Ret,"[…], time 28 day",2.6%
same,WBC,"[…], time 28 day",116.8 x10_2/uL
same,KIDNEY_L,"[…], time 7 day",1.1 g
same,KIDNEY_R,"[…], time 7 day",1.1 g
same,KIDNEY_TOTAL,"[…], time 7 day",2.3 g
same,KIDNEY_L,"[…], time 14 day",1.3 g
same,KIDNEY_R,"[…], time 14 day",1.3 g
same,KIDNEY_TOTAL,"[…], time 14 day",2.5 g
same,KIDNEY_L,"[…], time 28 day",1.4 g
same,KIDNEY_R,"[…], time 28 day",1.3 g
same,KIDNEY_TOTAL,"[…], time 28 day",2.7 g
same,LIVER,"[…], time 7 day",11.6 g
same,LIVER,"[…], time 14 day",14 g
same,LIVER,"[…], time 28 day",14.4 g
same,A/G,"[…], time 7 day",0.9
same,ALP,"[…], time 7 day",1546.6 IU/L
same,ALT,"[…], time 7 day",44.4 IU/L
same,AST,"[…], time 7 day",75.6 IU/L
same,BUN,"[…], time 7 day",15.6 mg/dL
same,CRE,"[…], time 7 day",0.2 mg/dL
same,Ca,"[…], time 7 day",10.4 mg/dL
same,Cl,"[…], time 7 day",104.4 meq/L
same,DBIL,"[…], time 7 day",0.016 mg/dL
same,GLC,"[…], time 7 day",179 mg/dL
same,IP,"[…], time 7 day",8 mg/dL
same,K,"[…], time 7 day",4.2 meq/L
same,LDH,"[…], time 7 day",75.6 IU/L
same,Na,"[…], time 7 day",142 meq/L
same,PL,"[…], time 7 day",141.6 mg/dL
same,RALB,"[…], time 7 day",2.5 g/dL
same,TBIL,"[…], time 7 day",0.024 mg/dL
same,TC,"[…], time 7 day",73.4 mg/dL
same,TG,"[…], time 7 day",117.8 mg/dL
same,TP,"[…], time 7 day",5.4 g/dL
same,gamma-GTP,"[…], time 7 day",1 IU/L
same,A/G,"[…], time 14 day",0.8
same,ALP,"[…], time 14 day",1343.2 IU/L
same,ALT,"[…], time 14 day",46.6 IU/L
same,AST,"[…], time 14 day",72.2 IU/L
same,BUN,"[…], time 14 day",16.8 mg/dL
same,CRE,"[…], time 14 day",0.2 mg/dL
same,Ca,"[…], time 14 day",11.2 mg/dL
same,Cl,"[…], time 14 day",105.2 meq/L
same,DBIL,"[…], time 14 day",0.014 mg/dL
same,GLC,"[…], time 14 day",182.6 mg/dL
same,IP,"[…], time 14 day",8.7 mg/dL
same,K,"[…], time 14 day",4 meq/L
same,LDH,"[…], time 14 day",68.4 IU/L
same,Na,"[…], time 14 day",144.2 meq/L
same,PL,"[…], time 14 day",158.6 mg/dL
same,RALB,"[…], time 14 day",2.7 g/dL
same,TBIL,"[…], time 14 day",0.022 mg/dL
same,TC,"[…], time 14 day",83.6 mg/dL
same,TG,"[…], time 14 day",119.4 mg/dL
same,TP,"[…], time 14 day",6 g/dL
same,gamma-GTP,"[…], time 14 day",1 IU/L
same,A/G,"[…], time 28 day",0.8
same,ALP,"[…], time 28 day",1018.2 IU/L
same,ALT,"[…], time 28 day",37.8 IU/L
same,AST,"[…], time 28 day",66.8 IU/L
same,BUN,"[…], time 28 day",16.6 mg/dL
same,CRE,"[…], time 28 day",0.2 mg/dL
same,Ca,"[…], time 28 day",11.2 mg/dL
same,Cl,"[…], time 28 day",105.2 meq/L
same,DBIL,"[…], time 28 day",0.016 mg/dL
same,GLC,"[…], time 28 day",179.4 mg/dL
same,IP,"[…], time 28 day",7.5 mg/dL
same,K,"[…], time 28 day",3.9 meq/L
same,LDH,"[…], time 28 day",76.8 IU/L
same,Na,"[…], time 28 day",143.4 meq/L
same,PL,"[…], time 28 day",134.4 mg/dL
same,RALB,"[…], time 28 day",2.7 g/dL
same,TBIL,"[…], time 28 day",0.03 mg/dL
same,TC,"[…], time 28 day",71.6 mg/dL
same,TG,"[…], time 28 day",134.8 mg/dL
same,TP,"[…], time 28 day",6.2 g/dL
same,gamma-GTP,"[…], time 28 day",1 IU/L
